Source: patent US12473258B2, “Crystal form of pyridinylphenyl compound and preparation method therefor” (ZHUHAI UNITED LABORATORIES CO., LTD., priority 2020, dated 2025)

Assays:
[1] = Pre-stability experiment of the crystal form (influencing factors and accelerated conditions, crystal form by XRPD); format: physicochemical
Protocol: X-Ray Powder Diffractometer (XRPD) Method in the Present Disclosure
Instrument model: Bruker D8 Advance X-ray diffractometer
Test method: About 10 mg of sample is used for XRPD test.
The detailed XRPD parameters are as follows:
The samples were fully exposed. Samples under the test condition of 40° C., 25° C./92.5% RH, light, light control were taken at 5 days and 10 days for analysis, and samples under the accelerated condition were taken at 1 month, 2 months and 3 months for analysis.

[2] = 25° C. competition experiment of water activity (suspension and beating, XRPD); format: physicochemical; conditions: competition of crystal form B and crystal form C
Protocol: If the solution was clear, the compound was continued to add until the solution was saturated. […] After addition of a magnetic stir bar, the above suspension sample was placed on a constant temperature mixer (25° C., 700 rpm) for shaking.
And the products obtained with water activity of 0.9 and 1.0 were characterized after drying, and the two were almost the same.

[3] = system: dry eye model of rat induced by hypertonic sodium chloride solution; experiment: Hyperosmolar dry eye model of rats induced by hypertonic sodium chloride solution, eye drop administration; format: in vivo, SD rats
Protocol: 20 female SD rats qualified for the adaptability observation were subjected to the scoring of fluorescent staining of the cornea and measurement of tear secretion amount of both eyes for the animals, and animals with abnormalities of problematic fluorescent staining of the cornea and significant differences in tear secretion amount were excluded.
A pipette was used to draw 20 μL of sodium chloride solution (osmotic pressure of 500 mOsmol/L), which was dropped into the conjunctival sac of both eyes of the animal, 5 times/day, 20 μL/time, with an interval of about 2 hours between each time, for 28 consecutive days. After dropping the solution, the animal's eyelids were passively closed for about 90 s. On the 14th day of the modeling period, the animals were subjected to scoring of fluorescent staining of the cornea of both eyes and measurement of tear secretion amount, and the data were compared with the basic data, and the animals with significant differences in tear secretion amount of both eyes were selected for grouping.
, the tear secretion amount of both eyes was measured, and the scoring of fluorescent staining of the cornea […]

[4] = Tolerability of eye drops after administration in animals; format: in vivo; conditions: eye drops with the highest concentration
[5] = system: dry eye model of mice induced by scopolamine hydrobromide solution; experiment: Dry eye model of mice induced by subcutaneous scopolamine hydrobromide solution, eye drop administration; format: in vivo, C57BL/6 mice
Protocol: The grouping day was recorded as DO. After divided into groups, Animals in each group were subjected to modeling, eye drop administration, scoring of corneal fluorescent staining, tear secretion measurement, etc., according to the experimental settings.

[6] = rats, 1 mg/mL eye drops (G2), D0
[7] = rats, 1 mg/mL eye drops (G2), D14
[8] = rats, 1 mg/mL eye drops (G2), D21
[9] = rats, 5 mg/mL eye drops (G3), D0
[10] = rats, 5 mg/mL eye drops (G3), D14
[11] = rats, 5 mg/mL eye drops (G3), D21
[12] = mice, 1 mg/mL eye drops (G3), D0 (grouping day)
[13] = mice, 1 mg/mL eye drops (G3), D7
[14] = mice, 1 mg/mL eye drops (G3), D12
[15] = mice, 2.5 mg/mL eye drops (G4), D0 (grouping day)
[16] = mice, 2.5 mg/mL eye drops (G4), D7
[17] = mice, 2.5 mg/mL eye drops (G4), D12
[18] = mice, 5 mg/mL eye drops (G5), D0 (grouping day)
[19] = mice, 5 mg/mL eye drops (G5), D7
[20] = mice, 5 mg/mL eye drops (G5), D12

Crystal Form ([1]; 25° C./92.5% RH (open), 5 days): Crystal Form B | Crystal Form ([1]; 25° C./92.5% RH (open), 10 days): Crystal Form B | Crystal Form ([1]; 40° C. (open), 1 month): Crystal Form B | Crystal Form ([1]; 40° C. (open), 10 days): Crystal Form B | Crystal Form ([1]; 40° C./75% RH (open), 1 month): Crystal Form B | Crystal Form ([1]; 40° C./75% RH (open), 2 month): Crystal Form B | Crystal Form ([1]; 40° C./75% RH (open), 3 month): Crystal Form B | Crystal Form ([1]; 60° C./75% RH (open), 1 month): Crystal Form B | Crystal Form ([1]; 60° C./75% RH (open), 2 month): Crystal Form B | Crystal Form ([1]; 60° C./75% RH (open), 3 month): Crystal Form B | Stability of the crystal form (conclusion) ([1]; influencing factors 10 days, 40° C. 1 month, 40° C./75% RH and 60° C./75% RH 3 months): stable | Crystal Form ([1]; light (visible light intensity 5000 lux and ultraviolet intensity 90 W/cm^2, open), 10 days): Crystal Form B | Crystal Form ([1]; light control, 10 days): Crystal Form B
SMILES: CC(C)(O)c1ccc(-c2cnc(C(C)(C)O)c(N)c2)cc1N
Relative stability of crystal forms (conclusion) [2]: more stable than the crystal form C of the compound of formula (I) | Therapeutic effect on the dry eye model of rat (tear secretion amount, corneal damage, tear film breakup time) ([3]; eye drops 1 mg/mL, 5 mg/mL): good therapeutic effect | Scoring of fluorescent staining of the cornea [3, 6]: 0.00 ± 0.00 | Tear secretion amount: wetted length of phenol red cotton thread [3, 6]: 13.78 ± 5.25 mm | Scoring of fluorescent staining of the cornea [3, 7]: 4.75 ± 3.73 | Tear secretion amount: wetted length of phenol red cotton thread [3, 7]: 8.12 ± 2.81 mm | Scoring of fluorescent staining of the cornea [3, 8]: 3.00 ± 2.78 | Tear secretion amount: wetted length of phenol red cotton thread [3, 8]: 9.24 ± 4.07 mm | Scoring of fluorescent staining of the cornea [3, 9]: 0.13 ± 0.35 | Tear secretion amount: wetted length of phenol red cotton thread [3, 9]: 13.87 ± 4.45 mm | Scoring of fluorescent staining of the cornea [3, 10]: 3.88 ± 2.36 | Tear secretion amount: wetted length of phenol red cotton thread [3, 10]: 7.16 ± 2.77 mm | Scoring of fluorescent staining of the cornea [3, 11]: 1.75 ± 1.49 | Tear secretion amount: wetted length of phenol red cotton thread [3, 11]: 11.37 ± 3.26 mm | Tear film breakup time ([3]; rats, eye drops): improved | Discomfort in animals after administration of the eye drops [4]: do not cause any discomfort | Therapeutic effect on the dry eye model of mice (tear secretion amount and corneal damage) ([5]; eye drops 1 mg/mL, 2.5 mg/mL, 5 mg/mL): good therapeutic effect | Scoring of fluorescent staining of the cornea [5, 12]: 0.50 ± 0.97 | Tear secretion amount: wetted length of phenol red cotton thread [5, 12]: 4.54 ± 1.84 mm | Scoring of fluorescent staining of the cornea [5, 13]: 2.56 ± 1.50##**& | Tear secretion amount: wetted length of phenol red cotton thread [5, 13]: 2.13 ± 0.69##**& mm | Scoring of fluorescent staining of the cornea [5, 14]: 2.31 ± 1.35##**& | Tear secretion amount: wetted length of phenol red cotton thread [5, 14]: 2.72 ± 0.91##**&& mm | Scoring of fluorescent staining of the cornea [5, 15]: 0.31 ± 0.87 | Tear secretion amount: wetted length of phenol red cotton thread [5, 15]: 4.30 ± 1.08 mm | Scoring of fluorescent staining of the cornea [5, 16]: 2.88 ± 2.53 | Tear secretion amount: wetted length of phenol red cotton thread [5, 16]: 2.14 ± 0.69##**& mm | Scoring of fluorescent staining of the cornea [5, 17]: 2.56 ± 1.55 | Tear secretion amount: wetted length of phenol red cotton thread [5, 17]: 2.58 ± 0.82##**& mm | Scoring of fluorescent staining of the cornea [5, 18]: 0.25 ± 0.58 | Tear secretion amount: wetted length of phenol red cotton thread [5, 18]: 4.28 ± 1.41 mm | Scoring of fluorescent staining of the cornea [5, 19]: 2.38 ± 2.09##**& | Tear secretion amount: wetted length of phenol red cotton thread [5, 19]: 2.73 ± 0.48##**&& mm | Scoring of fluorescent staining of the cornea [5, 20]: 2.38 ± 1.20##**& | Tear secretion amount: wetted length of phenol red cotton thread [5, 20]: 2.85 ± 0.57##**&& mm | Concentration of eye drops with the best therapeutic effect ([5]; mice, combining tear secretion amount and corneal staining score): 5 mg/mL
